Laboratory results taken from patent publication US5620958A, “Bradykinin antagonists” (Coretech, Inc., priority 1994, dated 1997).
Peptide text beside a SMILES is read from it.

How the values were obtained:
NK1 receptor = target: T1, NK1 receptor (Cavia porcellus, UniProt P30547); experiment: guinea pig ileum assay of NK1 receptor activity against substance P; assay type: cell-based; settings: Table O; for Kb: read-out: NK1 : GPI pA2 (± s.e.m.) (converted)
T1 construct: a standard guinea pig ileum assay of NK1 receptor activity; from tissue; host or cells: guinea pig ileum
T1 sequence (P30547 whole entry): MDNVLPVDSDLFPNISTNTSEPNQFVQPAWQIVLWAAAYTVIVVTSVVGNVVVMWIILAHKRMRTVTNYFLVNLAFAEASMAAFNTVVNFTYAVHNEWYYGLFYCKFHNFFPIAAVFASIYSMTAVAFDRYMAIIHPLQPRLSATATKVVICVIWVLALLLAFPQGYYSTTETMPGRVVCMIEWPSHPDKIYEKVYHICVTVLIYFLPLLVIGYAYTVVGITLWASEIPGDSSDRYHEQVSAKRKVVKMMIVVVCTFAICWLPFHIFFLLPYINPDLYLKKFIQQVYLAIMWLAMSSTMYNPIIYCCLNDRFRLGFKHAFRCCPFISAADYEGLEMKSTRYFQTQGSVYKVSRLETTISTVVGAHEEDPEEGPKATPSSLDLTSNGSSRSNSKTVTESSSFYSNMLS
From the text: In order to illustrate the potential of blocking two different receptor populations with a single compound a consensus NK1 receptor antagonist (DArg-DPro-Lys-Pro-Gln-Asn-DPhe-Phe-DTrp-Leu-Nle) was synthesized. […] Once the activity of this reference ligand was established, a series of lysine containing monomers formed by the systematic substitution of a lysine residue sequentially through the reference peptide was synthesized.

BK2 receptor = target: T2, BK2 receptor (Rattus norvegicus, UniProt P25023); experiment: cell-based
T2 sequence (P25023 1-396): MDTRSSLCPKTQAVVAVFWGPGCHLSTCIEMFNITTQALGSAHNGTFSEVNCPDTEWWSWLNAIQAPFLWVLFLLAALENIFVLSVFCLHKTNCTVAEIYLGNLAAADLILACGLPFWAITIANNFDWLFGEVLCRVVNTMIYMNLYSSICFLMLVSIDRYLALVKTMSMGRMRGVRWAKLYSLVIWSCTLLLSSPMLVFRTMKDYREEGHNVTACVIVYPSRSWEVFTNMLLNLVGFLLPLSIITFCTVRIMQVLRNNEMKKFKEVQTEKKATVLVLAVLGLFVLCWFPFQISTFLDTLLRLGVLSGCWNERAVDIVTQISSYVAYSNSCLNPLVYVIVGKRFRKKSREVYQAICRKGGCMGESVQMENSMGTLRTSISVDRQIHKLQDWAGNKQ

SMILES	Kb (NK1 receptor)	Kb (BK2 receptor)	NK1 : GPI pA2 (± s.e.m.) (NK1 receptor)
CCCC[C@H](NC(=O)[C@H](CC(C)C)NC(=O)[C@@H](Cc1c[nH]c2ccccc12)NC(=O)[C@H](Cc1ccccc1)NC(=O)[C@@H](Cc1ccccc1)NC(=O)[C@H](CC(N)=O)NC(=O)[C@H](CCC(N)=O)NC(=O)[C@@H]1CCCN1C(=O)[C@H](CCCCN)NC(=O)[C@H](CCCCNC(=O)CCCCCN1C(=O)CC(SC[C@H](NC(=O)[C@H](Cc2ccccc2)NC(=O)CNC(=O)[C@@H]2C[C@@H](O)CN2C(=O)[C@@H]2CCCN2C(=O)[C@H](CCCNC(=N)N)NC(=O)[C@H](N)CCCNC(=N)N)C(=O)N[C@H](Cc2ccccc2)C(=O)N[C@@H](CC(C)C)C(=O)N[C@@H](CCCNC(=N)N)C(=O)O)C1=O)NC(=O)[C@H](N)CCCNC(=N)N)C(N)=O (some centres unmarked) [CP-0391] (HELM PEPTIDE1{[dR].K.K.P.Q.N.[dF].F.[dW].L.[Nle].[am]}|PEPTIDE2{[dR].R.P.[Hyp].G.F.C.[dF].L.R}|CHEM1{[O=C1CC([*:2])C(=O)N1CCCCCC(=O)[*:1]]}$PEPTIDE1,CHEM1,2:R3-1:R1|PEPTIDE2,CHEM1,7:R3-1:R2$$$V2.0)	10000 nM	79.4 nM	
CCCC[C@H](NC(=O)[C@H](CC(C)C)NC(=O)[C@@H](Cc1c[nH]c2ccccc12)NC(=O)[C@H](CCCCNC(=O)CCCCCN1C(=O)CC(SC[C@H](NC(=O)[C@H](Cc2ccccc2)NC(=O)CNC(=O)[C@@H]2C[C@@H](O)CN2C(=O)[C@@H]2CCCN2C(=O)[C@H](CCCNC(=N)N)NC(=O)[C@H](N)CCCNC(=N)N)C(=O)N[C@H](Cc2ccccc2)C(=O)N[C@@H](CC(C)C)C(=O)N[C@@H](CCCNC(=N)N)C(=O)O)C1=O)NC(=O)[C@@H](Cc1ccccc1)NC(=O)[C@H](CC(N)=O)NC(=O)[C@H](CCC(N)=O)NC(=O)[C@@H]1CCCN1C(=O)[C@H](CCCCN)NC(=O)[C@H]1CCCN1C(=O)[C@H](N)CCCNC(=N)N)C(N)=O (some centres unmarked) [CP-0397] (HELM PEPTIDE1{[dR].[dP].K.P.Q.N.[dF].K.[dW].L.[Nle].[am]}|PEPTIDE2{[dR].R.P.[Hyp].G.F.C.[dF].L.R}|CHEM1{[O=C1CC([*:2])C(=O)N1CCCCCC(=O)[*:1]]}$PEPTIDE1,CHEM1,8:R3-1:R1|PEPTIDE2,CHEM1,7:R3-1:R2$$$V2.0)		20 nM	Inactive
CCCC[C@H](NC(=O)[C@H](CC(C)C)NC(=O)[C@@H](Cc1c[nH]c2ccccc12)NC(=O)[C@H](Cc1ccccc1)NC(=O)[C@@H](Cc1ccccc1)NC(=O)[C@H](CC(N)=O)NC(=O)[C@H](CCCCNC(=O)CCCCCN1C(=O)CC(SC[C@H](NC(=O)[C@H](Cc2ccccc2)NC(=O)CNC(=O)[C@@H]2C[C@@H](O)CN2C(=O)[C@@H]2CCCN2C(=O)[C@H](CCCNC(=N)N)NC(=O)[C@H](N)CCCNC(=N)N)C(=O)N[C@H](Cc2ccccc2)C(=O)N[C@@H](CC(C)C)C(=O)N[C@@H](CCCNC(=N)N)C(=O)O)C1=O)NC(=O)[C@@H]1CCCN1C(=O)[C@H](CCCCN)NC(=O)[C@H]1CCCN1C(=O)[C@H](N)CCCNC(=N)N)C(N)=O (some centres unmarked) [CP-0394] (HELM PEPTIDE1{[dR].[dP].K.P.K.N.[dF].F.[dW].L.[Nle].[am]}|PEPTIDE2{[dR].R.P.[Hyp].G.F.C.[dF].L.R}|CHEM1{[O=C1CC([*:2])C(=O)N1CCCCCC(=O)[*:1]]}$PEPTIDE1,CHEM1,5:R3-1:R1|PEPTIDE2,CHEM1,7:R3-1:R2$$$V2.0)	1580 nM	12.6 nM	
CCCC[C@H](NC(=O)[C@H](CC(C)C)NC(=O)[C@H](CCCCNC(=O)CCCCCN1C(=O)CC(SC[C@H](NC(=O)[C@H](Cc2ccccc2)NC(=O)CNC(=O)[C@@H]2C[C@@H](O)CN2C(=O)[C@@H]2CCCN2C(=O)[C@H](CCCNC(=N)N)NC(=O)[C@H](N)CCCNC(=N)N)C(=O)N[C@H](Cc2ccccc2)C(=O)N[C@@H](CC(C)C)C(=O)N[C@@H](CCCNC(=N)N)C(=O)O)C1=O)NC(=O)[C@H](Cc1ccccc1)NC(=O)[C@@H](Cc1ccccc1)NC(=O)[C@H](CC(N)=O)NC(=O)[C@H](CCC(N)=O)NC(=O)[C@@H]1CCCN1C(=O)[C@H](CCCCN)NC(=O)[C@H]1CCCN1C(=O)[C@H](N)CCCNC(=N)N)C(N)=O (some centres unmarked) [CP-0398] (HELM PEPTIDE1{[dR].[dP].K.P.Q.N.[dF].F.K.L.[Nle].[am]}|PEPTIDE2{[dR].R.P.[Hyp].G.F.C.[dF].L.R}|CHEM1{[O=C1CC([*:2])C(=O)N1CCCCCC(=O)[*:1]]}$PEPTIDE1,CHEM1,9:R3-1:R1|PEPTIDE2,CHEM1,7:R3-1:R2$$$V2.0)		398 nM	Inactive
CCCC[C@H](NC(=O)[C@H](CC(C)C)NC(=O)[C@@H](Cc1c[nH]c2ccccc12)NC(=O)[C@H](Cc1ccccc1)NC(=O)[C@H](CCCCNC(=O)CCCCCN1C(=O)CC(SC[C@H](NC(=O)[C@H](Cc2ccccc2)NC(=O)CNC(=O)[C@@H]2C[C@@H](O)CN2C(=O)[C@@H]2CCCN2C(=O)[C@H](CCCNC(=N)N)NC(=O)[C@H](N)CCCNC(=N)N)C(=O)N[C@H](Cc2ccccc2)C(=O)N[C@@H](CC(C)C)C(=O)N[C@@H](CCCNC(=N)N)C(=O)O)C1=O)NC(=O)[C@H](CC(N)=O)NC(=O)[C@H](CCC(N)=O)NC(=O)[C@@H]1CCCN1C(=O)[C@H](CCCCN)NC(=O)[C@H]1CCCN1C(=O)[C@H](N)CCCNC(=N)N)C(N)=O (some centres unmarked) [CP-0396] (HELM PEPTIDE1{[dR].[dP].K.P.Q.N.K.F.[dW].L.[Nle].[am]}|PEPTIDE2{[dR].R.P.[Hyp].G.F.C.[dF].L.R}|CHEM1{[O=C1CC([*:2])C(=O)N1CCCCCC(=O)[*:1]]}$PEPTIDE1,CHEM1,7:R3-1:R1|PEPTIDE2,CHEM1,7:R3-1:R2$$$V2.0)		10 nM	Inactive
CCCC[C@H](NC(=O)[C@H](CC(C)C)NC(=O)[C@@H](Cc1c[nH]c2ccccc12)NC(=O)[C@H](Cc1ccccc1)NC(=O)[C@@H](Cc1ccccc1)NC(=O)[C@H](CCCCNC(=O)CCCCCN1C(=O)CC(SC[C@H](NC(=O)[C@H](Cc2ccccc2)NC(=O)CNC(=O)[C@@H]2C[C@@H](O)CN2C(=O)[C@@H]2CCCN2C(=O)[C@H](CCCNC(=N)N)NC(=O)[C@H](N)CCCNC(=N)N)C(=O)N[C@H](Cc2ccccc2)C(=O)N[C@@H](CC(C)C)C(=O)N[C@@H](CCCNC(=N)N)C(=O)O)C1=O)NC(=O)[C@H](CCC(N)=O)NC(=O)[C@@H]1CCCN1C(=O)[C@H](CCCCN)NC(=O)[C@H]1CCCN1C(=O)[C@H](N)CCCNC(=N)N)C(N)=O (some centres unmarked) [CP-0395] (HELM PEPTIDE1{[dR].[dP].K.P.Q.K.[dF].F.[dW].L.[Nle].[am]}|PEPTIDE2{[dR].R.P.[Hyp].G.F.C.[dF].L.R}|CHEM1{[O=C1CC([*:2])C(=O)N1CCCCCC(=O)[*:1]]}$PEPTIDE1,CHEM1,6:R3-1:R1|PEPTIDE2,CHEM1,7:R3-1:R2$$$V2.0)	501 nM	50.1 nM	
CCCC[C@H](NC(=O)[C@H](CC(C)C)NC(=O)[C@@H](Cc1c[nH]c2ccccc12)NC(=O)[C@H](Cc1ccccc1)NC(=O)[C@@H](Cc1ccccc1)NC(=O)[C@H](CC(N)=O)NC(=O)[C@H](CCC(N)=O)NC(=O)[C@@H]1CCCN1C(=O)[C@H](CCCCNC(=O)CCCCCN1C(=O)CC(SC[C@H](NC(=O)[C@H](Cc2ccccc2)NC(=O)CNC(=O)[C@@H]2C[C@@H](O)CN2C(=O)[C@@H]2CCCN2C(=O)[C@H](CCCNC(=N)N)NC(=O)[C@H](N)CCCNC(=N)N)C(=O)N[C@H](Cc2ccccc2)C(=O)N[C@@H](CC(C)C)C(=O)N[C@@H](CCCNC(=N)N)C(=O)O)C1=O)NC(=O)[C@H]1CCCN1C(=O)[C@H](N)CCCNC(=N)N)C(N)=O (some centres unmarked) [CP-0392] (HELM PEPTIDE1{[dR].[dP].K.P.Q.N.[dF].F.[dW].L.[Nle].[am]}|PEPTIDE2{[dR].R.P.[Hyp].G.F.C.[dF].L.R}|CHEM1{[O=C1CC([*:2])C(=O)N1CCCCCC(=O)[*:1]]}$PEPTIDE1,CHEM1,3:R3-1:R1|PEPTIDE2,CHEM1,7:R3-1:R2$$$V2.0)	5010 nM	100 nM	
